Test results taken from article PMC6410080 (Viruses, 2019).
Read-outs that look alike come from different tables or passages of the source.

How the values were obtained:
H5N1 VLP = assay: microbe, parasite or virus in culture; format: cell-based, influenza H5N1; details: for IC50: Influenza A virus, H5N1, HeLa Kyoto, 48 h, read-out: IC50 H5N1
EBOV VLP = assay: microbe, parasite or virus in culture; format: cell-based, Ebola virus
DENV-2 = DENV-2 infection assay / secondary screen (E protein staining); format: cell-based, dengue virus serotype 2; details: for % inhibition (DENV-2 screen): 10 µM; for inhibition at 10 µM: read-out: % inhibition (DENV-2 screen)
HeLa Kyoto cells [1] = test system: HeLa Kyoto cells
SFV [2] = assay: microbe, parasite or virus in culture; format: cell-based, Semliki Forest virus; details: for % inhibition (SFV screen): 10 µM; for IC50: read-out: IC50 SFV (7 h); for inhibition at 10 µM: M-HeLa, 7 h, read-out: % inhibition (SFV screen)
VACV = assay: microbe, parasite or virus in culture; format: cell-based, vaccinia virus; details: read-out: IC50 VACV
RABV VLP = assay: microbe, parasite or virus in culture; format: cell-based, rabies virus; details: read-out: IC50 RABV
SINV = assay: microbe, parasite or virus in culture; format: cell-based, Sindbis virus; details: read-out: IC50 SINV
HCV = assay: microbe, parasite or virus in culture; format: cell-based, hepatitis C virus
[3] = test system: Renilla luciferase expression (protein synthesis); format: cell-based
ZIKV = assay: microbe, parasite or virus in culture; format: cell-based, Zika virus
viruses/VLPs tested = format: cell-based
SFV [4] = format: cell-based, Semliki Forest virus
Huh7 cells [5] = assay: MTT assay, Huh7 cells; details: for TC50 DENV-2 (7 + 17 h): Huh7, compounds 7 h then compound-free media 17 h; for TC50 DENV-2 (24 h): Huh7, compounds 24 h
Huh7 cells [6] = details: 10 µM
HIV-1 = assay: microbe, parasite or virus in culture; format: cell-based, human immunodeficiency virus type 1; details: read-out: IC50 HIV
HeLa Kyoto cells [7] = details: 10 µM
YF17D = assay: organism not typed; format: cell-based, yellow fever 17D
DENV-3 = assay: microbe, parasite or virus in culture; format: cell-based, dengue virus
HSV-1 = assay: microbe, parasite or virus in culture; format: cell-based, herpes simplex virus 1; details: for IC50: read-out: IC50 HSV (Vero)
VSV VLP = assay: microbe, parasite or virus in culture; format: cell-based, vesicular stomatitis virus; details: read-out: IC50 VSV
DENV-1 = assay: microbe, parasite or virus in culture; format: cell-based, dengue virus
in vitro [8] = details: human, % viability (SFV screen)
Huh7 cells [9] = details: human
in vitro [10] = details: human
[11] = Huh7, MOI 1, 24 h, compared to DMSO-treated controls
[12] = Huh7, compounds 7 h then media replaced for 17 h, read-out: IC50 DENV-2 (7 + 17 h)
[13] = Huh7, compounds for entire 24 h, read-out: IC50 DENV-2 (24 h)
[14] = Dengue virus, DENV2, Huh-7, 24 h
[15] = Dengue virus, DENV2, Huh-7, 24 h, read-out: IC50 DENV-2 (7 + 17 h)
[16] = Dengue virus, DENV2, Huh-7, 24 h, read-out: IC50 DENV-2 (24 h)
[17] = Semliki Forest virus, HeLa Kyoto
[18] = Lyssavirus rabies, HeLa Kyoto, 24 h
[19] = Hepatitis C virus, Huh7.5, read-out: IC50 HCV
[20] = Zika virus, Huh-7, read-out: IC50 ZIKV
[21] = Human immunodeficiency virus 1, 24 h
[22] = Vesicular stomatitis virus, HeLa Kyoto, 24 h
[23] = Dengue virus, DENV1, Huh-7, read-out: IC50 DENV-1

SMILES: Cc1ccc(S(=O)(=O)N[C@@H](Cc2ccccc2)C(=O)CCl)cc1 [N-p-Tosyl-L-PCK, N-p-Tosyl-L-phenylalanine chloromethyl ketone]
- IC50 H5N1 (H5N1 VLP): No inhibition
- IC50 EBOV (EBOV VLP): No inhibition
- % inhibition (DENV-2 screen) (DENV-2; [11]): 60.35%
- IC50 (DENV-2; [12]): 19.6 µM
- IC50 (DENV-2; [13]): 7.5 µM
- TC50 SFV (7 h) (HeLa Kyoto cells [1]): 42.7 µM
- TC50 SFV (7h) (HeLa Kyoto cells [1]): 42700 µM
- % inhibition (SFV screen) (SFV [2]): 82.34%
- IC50 (SFV [2]): 10.7 µM
- IC50 (VACV): 14.4 µM
- IC50 (RABV VLP): 15 µM
- IC50 (SINV): 11.9 µM
- IC50 (HCV; read-out: IC50 HCV): ~13 µM
- Decrease of Renilla signal (protein synthesis) [3]: more than 50%
- Inhibition of protein synthesis at lower concentrations [3]: partially inhibits protein synthesis but not virus infection
- IC50 (ZIKV; read-out: IC50 ZIKV): 24.3 µM
- Viruses Inhibited (viruses/VLPs tested): Unclear pattern
- Activity when added before SFV or 30 and 60 min after internalisation (SFV [4]): act exclusively before (or at the stage of) fusion
- Time of Addition (SFV [4]): Before fusion
- TC50 DENV-2 (7 + 17 h) (Huh7 cells [5]): 24.2 µM
- TC50 DENV-2 (24 h) (Huh7 cells [5]): 31.7 µM
- % viability (DENV-2 screen) (Huh7 cells [6]): 58.91%
- IC50 (HIV-1): 12.5 µM
- % viability (SFV screen) (HeLa Kyoto cells [7]): 95.24%
- IC50 (YF17D; read-out: IC50 YF17D): 4.6 µM
- IC50 (DENV-3; read-out: IC50 DENV-3): 24.2 µM
- IC50 HSV (Vero) (HSV-1): No inhibition
- IC50 (VSV VLP): 11.5 µM
- IC50 (DENV-1; read-out: IC50 DENV-1): 25.6 µM

SMILES: O=[N+]([O-])c1ccc2c(c1)S(=O)(=O)C=C2 [Stattic]
- IC50 H5N1 (H5N1 VLP): Toxic
- IC50 EBOV (EBOV VLP): Toxic
- % inhibition (DENV-2 screen) (DENV-2; [11]): 87.08%
- IC50 (DENV-2; [12]): 3 µM
- IC50 (DENV-2; [13]): 0.9 µM
- TC50 SFV (7 h) (HeLa Kyoto cells [1]): 7.8 µM
- TC50 SFV (7h) (HeLa Kyoto cells [1]): 7800 µM
- % inhibition (SFV screen) (SFV [2]): 95.82%
- IC50 (VACV): 4.1 µM
- IC50 (RABV VLP): 3.2 µM
- IC50 (SINV): 3.6 µM
- IC50 (HCV; read-out: IC50 HCV): 3.7 µM
- Decrease of Renilla signal (protein synthesis) [3]: more than 50%
- Inhibition of protein synthesis at lower concentrations [3]: lose their inhibitory activity on protein synthesis
- IC50 (ZIKV; read-out: IC50 ZIKV): 4 µM
- Viruses Inhibited (viruses/VLPs tested): All tested
- Activity when added before SFV or 30 and 60 min after internalisation (SFV [4]): No difference
- Time of Addition (SFV [4]): After fusion
- TC50 DENV-2 (7 + 17 h) (Huh7 cells [5]): 17.3 µM
- TC50 DENV-2 (24 h) (Huh7 cells [5]): 9.7 µM
- % viability (DENV-2 screen) (Huh7 cells [6]): 60.49%
- IC50 (HIV-1): 3.2 µM
- % viability (SFV screen) (HeLa Kyoto cells [7]): 64.89%
- IC50 (YF17D; read-out: IC50 YF17D): 4.9 µM
- IC50 (HSV-1): 5.2 µM

SMILES: Cl.Cn1c(CCCC(=O)O)nc2cc(N(CCCl)CCCl)ccc21 [Bendamustine hydrochloride]
- % inhibition (DENV-2 screen) (DENV-2): 56.91%
- % inhibition (SFV screen) (SFV [2]): 104.91%
- % viability (DENV-2 screen) (Huh7 cells [6]; Huh7, 24 h, compared to DMSO-treated controls): 85.62%
- % viability (SFV screen) (HeLa Kyoto cells [7]): 76.50%

SMILES: Cl.Cl.Fc1ccc(C(OCCN2CCN(CCCc3ccccc3)CC2)c2ccc(F)cc2)cc1 [GBR 12909 dihydrochloride]
- % inhibition (DENV-2 screen) (DENV-2; [11]): 83.87%
- % inhibition (SFV screen) (SFV [2]): 75.39%
- % viability (DENV-2 screen) (Huh7 cells [6]): 38.91%
- % viability (SFV screen) (HeLa Kyoto cells [7]): 90.30%

SMILES: CNc1ccc2oc(C[C@H]3O[C@@]4(CC[C@H]3C)O[C@H]([C@H](C)C(=O)c3ccc[nH]3)[C@H](C)C[C@H]4C)nc2c1C(=O)O [Calcimycin]
- IC50 (H5N1 VLP): 0.4 µM
- IC50 (EBOV VLP; Zaire ebolavirus, HeLa Kyoto, 48 h, read-out: IC50 EBOV): 0.5 µM
- inhibition at 10 µM (DENV-2; [14]): 100%
- IC50 (DENV-2; [15]): 4.4 µM
- IC50 (DENV-2; [16]): 0.38 µM
- TC50 SFV (7 h) (HeLa Kyoto cells [1]; human): 4.1 µM
- TC50 SFV (7h) (HeLa Kyoto cells [1]; human): 4100 µM
- IC50 (SFV [2]; [17]): 0.6 µM
- inhibition at 10 µM (SFV [2]; Semliki Forest virus): 91.4%
- IC50 (RABV VLP; [18]): 0.7 µM
- viability at 10 µM (in vitro [8]): 34.4%
- IC50 (SINV; Sindbis virus, HeLa Kyoto): 2.1 µM
- IC50 (HCV; [19]): 1.45 µM
- Decrease of Renilla signal (protein synthesis) [3]: more than 50%
- Inhibition of protein synthesis at lower concentrations [3]: lose their inhibitory activity on protein synthesis
- TC50 DENV-2 (7 + 17 h) (Huh7 cells [9]): >50 µM
- TC50 DENV-2 (24 h) (Huh7 cells [9]): 6.7 µM
- IC50 (ZIKV; [20]): 17.1 µM
- Viruses Inhibited (viruses/VLPs tested): All tested
- IC50 (HIV-1; [21]): 2.5 µM
- IC50 (YF17D; Huh-7, read-out: IC50 YF17D): 0.4 µM
- viability at 10 µM (in vitro [10]): 40%
- IC50 (HSV-1; Human alphaherpesvirus 1, Vero, 8 h): < 0.5 µM
- IC50 (VSV VLP; [22]): 0.1 µM
- IC50 (DENV-1; [23]): 4.3 µM

SMILES: C=C1C(=O)O[C@H]2[C@H]1CC/C(C)=C/CC[C@@]1(C)O[C@@H]21 [Parthenolide]
- IC50 (H5N1 VLP): 19.4 µM
- IC50 EBOV (EBOV VLP): Toxic
- inhibition at 10 µM (DENV-2; [14]): 91.2%
- IC50 (DENV-2; [15]): 12.2 µM
- IC50 (DENV-2; [16]): 7.5 µM
- TC50 SFV (7 h) (HeLa Kyoto cells [1]; human, 7 h): 11.7 µM
- TC50 SFV (7h) (HeLa Kyoto cells [1]; human, 7 h): 11700 µM
- % inhibition (SFV screen) (SFV [2]): 98.23%
- IC50 (SFV [2]; [17]): 3.3 µM
- inhibition at 10 µM (SFV [2]; Semliki Forest virus): 101%
- IC50 (VACV; Orthopoxvirus vaccinia, HeLa Kyoto, 8 h): 5 µM
- IC50 (RABV VLP; [18]): 3.8 µM
- viability at 10 µM (in vitro [8]): 56.8%
- IC50 (SINV; Sindbis virus, HeLa Kyoto): 3.2 µM
- IC50 (HCV; [19]): 5.6 µM
- TC50 DENV-2 (7 + 17 h) (Huh7 cells [9]): 35.8 µM
- TC50 DENV-2 (24 h) (Huh7 cells [9]; 24 h): 11.9 µM
- IC50 (ZIKV; [20]): 6.1 µM
- Viruses Inhibited (viruses/VLPs tested): Unclear pattern
- Activity when added before SFV or 30 and 60 min after internalisation (SFV [4]): minor but reproducible decrease in activity
- Time of Addition (SFV [4]): Before and after fusion
- IC50 (HIV-1; [21]): 3.7 µM
- % viability (SFV screen) (HeLa Kyoto cells [7]; human): 74.22%
- IC50 (YF17D; Huh-7, read-out: IC50 YF17D): 6.4 µM
- IC50 (DENV-3; Dengue virus, DENV3, Huh-7, read-out: IC50 DENV-3): 15.8 µM
- viability at 10 µM (in vitro [10]): 71.4%
- IC50 HSV (Vero) (HSV-1; virus, Vero cells, 8 h): No inhibition
- IC50 (VSV VLP; [22]): 2.6 µM
- IC50 (DENV-1; [23]): 10 µM
